Our source for the IC50 values is patent publication US12643910B2, “Substituted pyrazolo[3,4-b]pyridines as ectonucleotide pyrophosphatase/phosphodiesterase 1 (ENPP1) modulators” (SANFORD BURNHAM PREBYS MEDICAL DISCOVERY INSTITUTE, priority 2019, dated 2026).

Assay [1] has as its target T1, human ENPP1 (Homo sapiens, UniProt P22413).
T1 construct: made in house
T1 sequence (P22413 1-925): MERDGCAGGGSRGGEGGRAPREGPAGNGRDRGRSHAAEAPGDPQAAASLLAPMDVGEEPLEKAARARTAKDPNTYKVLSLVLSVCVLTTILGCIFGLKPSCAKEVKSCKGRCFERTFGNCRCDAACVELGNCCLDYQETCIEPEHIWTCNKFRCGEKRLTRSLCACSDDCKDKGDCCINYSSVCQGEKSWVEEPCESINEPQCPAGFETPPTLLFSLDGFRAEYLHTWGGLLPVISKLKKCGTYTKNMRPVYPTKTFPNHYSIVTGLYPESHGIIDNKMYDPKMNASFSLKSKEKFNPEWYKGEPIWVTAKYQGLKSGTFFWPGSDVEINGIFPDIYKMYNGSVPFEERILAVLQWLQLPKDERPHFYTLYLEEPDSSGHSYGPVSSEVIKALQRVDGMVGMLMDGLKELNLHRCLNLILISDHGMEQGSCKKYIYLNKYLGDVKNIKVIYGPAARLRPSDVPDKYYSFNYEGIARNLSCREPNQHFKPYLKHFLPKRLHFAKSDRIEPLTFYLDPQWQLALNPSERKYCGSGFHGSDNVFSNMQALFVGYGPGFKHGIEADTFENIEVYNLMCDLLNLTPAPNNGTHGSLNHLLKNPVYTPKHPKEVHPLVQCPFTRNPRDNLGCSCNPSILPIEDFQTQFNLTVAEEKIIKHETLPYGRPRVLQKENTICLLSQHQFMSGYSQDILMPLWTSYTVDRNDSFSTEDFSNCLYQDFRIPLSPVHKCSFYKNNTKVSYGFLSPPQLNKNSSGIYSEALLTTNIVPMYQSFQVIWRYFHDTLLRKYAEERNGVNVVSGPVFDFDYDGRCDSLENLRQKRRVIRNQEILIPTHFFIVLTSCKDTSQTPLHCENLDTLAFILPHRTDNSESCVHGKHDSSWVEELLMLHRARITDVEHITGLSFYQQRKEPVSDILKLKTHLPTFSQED
In words: ENPP1 assay with ATP substrate (Transcreener AMP2/GMP2 TR-FRET). The format is biochemical. As to conditions: 1 hour at room temperature. Put shortly:
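5′-AMP from ATP hydrolysis (300 nM ATP stock added; enzyme added as 8.5 μM stock) detected by competitive TR-FRET. Buffer: 50 mM Tris pH 7.5, 1 mM TCEP, 2 mM MgCl2, 0.005% Tween 20, 1% DMSO. Reaction 1 h at room temperature, EDTA stop. IC50 from 2-parameter variable-slope fit.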
In general terms: TR-FRET usually uses a lanthanide donor and a delayed reading to cut background.

The target of assay [2] is T2, ENPP3 (Homo sapiens, UniProt O14638).
T2 sequence (O14638 1-875): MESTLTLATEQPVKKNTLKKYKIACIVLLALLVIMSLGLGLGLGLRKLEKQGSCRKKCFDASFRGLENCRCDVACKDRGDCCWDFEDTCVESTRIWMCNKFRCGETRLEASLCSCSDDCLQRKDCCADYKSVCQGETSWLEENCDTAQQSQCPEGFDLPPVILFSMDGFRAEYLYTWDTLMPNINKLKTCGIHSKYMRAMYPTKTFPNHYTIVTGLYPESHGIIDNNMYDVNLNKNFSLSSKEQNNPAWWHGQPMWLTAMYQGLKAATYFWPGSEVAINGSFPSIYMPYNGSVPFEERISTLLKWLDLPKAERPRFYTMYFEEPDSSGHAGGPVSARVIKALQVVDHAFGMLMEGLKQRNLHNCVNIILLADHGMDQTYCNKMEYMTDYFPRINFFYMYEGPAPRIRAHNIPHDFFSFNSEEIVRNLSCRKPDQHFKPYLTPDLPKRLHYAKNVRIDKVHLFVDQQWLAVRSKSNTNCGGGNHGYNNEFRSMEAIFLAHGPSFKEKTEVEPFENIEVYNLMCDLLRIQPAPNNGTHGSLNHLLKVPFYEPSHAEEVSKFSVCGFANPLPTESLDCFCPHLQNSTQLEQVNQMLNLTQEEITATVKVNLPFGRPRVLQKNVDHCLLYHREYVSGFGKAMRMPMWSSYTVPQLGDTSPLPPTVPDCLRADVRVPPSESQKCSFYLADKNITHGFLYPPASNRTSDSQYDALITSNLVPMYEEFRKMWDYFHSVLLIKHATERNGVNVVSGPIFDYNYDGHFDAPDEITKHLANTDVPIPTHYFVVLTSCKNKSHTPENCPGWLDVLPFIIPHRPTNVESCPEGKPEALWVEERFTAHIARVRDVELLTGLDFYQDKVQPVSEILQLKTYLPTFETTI
The assay can be described thus: ENPP3 Km ATP assay. The format is biochemical. As to conditions: ATP at Km.

As to `Cc1csc2c(N3CCC(NC(=O)CCc4ccncc4F)CC3)ncnc12` [Example 3.38, 3-(3-fluoropyridin-4-yl)-N-(1-(7-methylthieno[3,2-d]pyrimidin-4-yl)piperidin-4-yl)propanamide], the IC50 in assay [1] and in assay [2] was greater than 20 µM throughout.
Regarding `Cc1csc2c(N3CCC(NC(=O)CCc4cccc(F)c4)CC3)ncnc12` [Example 3.39, 3-(3-Fluorophenyl)-N-(1-(7-methylthieno[3,2-d]pyrimidin-4-yl)piperidin-4-yl)propanamide], the IC50 in assay [1] and in assay [2] was greater than 20 µM throughout.
Take `Cc1csc2c(N3CCC(NCCCc4ccncc4F)CC3)ncnc12` [Example 3.40, N-(3-(3-Fluoropyridin-4-yl)propyl)-1-(7-methylthieno[3,2-d]pyrimidin-4-yl)piperidin-4-amine]: the results for the IC50 in assay [1] and in assay [2] were 0.1 to 1 µM and greater than 20 µM, respectively.
Taken in the same sequence, the figures for `Cc1csc2c(N3CCC(NCCCc4cccc(F)c4)CC3)ncnc12` [Example 3.41, N-(3-(3-Fluorophenyl)propyl)-1-(7-methylthieno[3,2-d]pyrimidin-4-yl)piperidin-4-amine] were 0.1 to 1 µM and greater than 20 µM.
Regarding `Cc1csc2c(N3CCC(NCc4ccc(F)cc4)CC3)ncnc12` [Example 3.42, N-(4-Fluorobenzyl)-1-(7-methylthieno[3,2-d]pyrimidin-4-yl)piperidin-4-amine], the figures for the IC50 in assay [1] and in assay [2] were 1 to 20 µM and greater than 20 µM, respectively.
Take `Cc1csc2c(N3CCC(NC(=O)Cc4ccc(F)cc4)CC3)ncnc12` [Example 3.43, 2-(4-Fluorophenyl)-N-(1-(7-methylthieno[3,2-d]pyrimidin-4-yl)piperidin-4-yl)acetamide]: the IC50 (usually the concentration that inhibits the measured activity by half) in assay [1] was 1 to 20 µM; in assay [2], greater than 20 µM.
With `Cc1csc2c(N3CCC(NCCc4ccc(F)cc4)CC3)ncnc12` [Example 3.44, N-(4-Fluorophenethyl)-1-(7-methylthieno[3,2-d]pyrimidin-4-yl)piperidin-4-amine], the IC50 in assay [1] is 0.1 to 1 µM; in assay [2], greater than 20 µM.
On to `Cc1csc2c(N3CCC(OCCCc4ccc(F)cc4)CC3)ncnc12` [Example 3.45, 4-(4-(3-(4-Fluorophenyl)propoxy)piperidin-1-yl)-7-methylthieno[3,2-d]pyrimidine], for which the IC50 in assay [1] and in assay [2] was greater than 20 µM throughout.
In the case of `O=C(CCc1ccc(F)cc1)NC1CCN(c2ncnc3ccsc23)CC1` [Example 3.46, 3-(4-Fluorophenyl)-N-(1-(thieno[3,2-d]pyrimidin-4-yl)piperidin-4-yl)propanamide], the half-inhibitory concentration (IC50) in assay [1] and in assay [2] was greater than 20 µM each time.
Take `Fc1ccc(CCCNC2CCN(c3ncnc4ccsc34)CC2)cc1` [Example 3.47, N-(3-(4-Fluorophenyl)propyl)-1-(thieno[3,2-d]pyrimidin-4-yl)piperidin-4-amine]: the IC50 in assay [1] is 1 to 20 µM; in assay [2], greater than 20 µM.
On to `O=C(CCc1ccc(F)cc1)NC1CCN(c2ncnc3c(I)csc23)CC1` [Example 3.48, 3-(4-Fluorophenyl)-N-(1-(7-iodothieno[3,2-d]pyrimidin-4-yl)piperidin-4-yl)propanamide], for which the 50% inhibitory concentration (IC50) is 0.1 to 1 µM in assay [1] and greater than 20 µM in assay [2].
Taken in the same sequence, the figures for `Cn1ncc2c(N3CCC(NCCCc4ccc(F)cc4)CC3)ncnc21` [Example 3.50, N-(3-(4-Fluorophenyl)propyl)-1-(1-methyl-1H-pyrazolo[3,4-d]pyrimidin-4-yl)piperidin-4-amine] were greater than 20 µM and greater than 20 µM.
Taken in the same sequence, the figures for `COc1cc(CCCNC2CCN(c3ncnc4c(C)csc34)CC2)ccn1` [Example 3.51, N-(3-(2-Methoxypyridin-4-yl)propyl)-1-(7-methylthieno[3,2-d]pyrimidin-4-yl)piperidin-4-amine] were 0.1 to 1 µM and greater than 20 µM.
As to `Cc1nc(N2CCC(NCCCc3ccncc3)CC2)c2scc(C)c2n1` [Example 3.52, 1-(2,7-Dimethylthieno[3,2-d]pyrimidin-4-yl)-N-(3-(pyridin-4-yl)propyl)piperidin-4-amine], the IC50 in assay [1] and in assay [2] was greater than 20 µM each time.
Take `Cc1csc2c(N3CCC(NCCCc4ccncc4)CC3)nc(N3CCN(C)CC3)nc12` [Example 3.53, 1-(7-Methyl-2-(4-methylpiperazin-1-yl)thieno[3,2-d]pyrimidin-4-yl)-N-(3-(pyridin-4-yl)propyl)piperidin-4-amine]: the half-maximal inhibitory concentration (IC50) in assay [1] and in assay [2] was greater than 20 µM each time.
As for `CCc1nc(N2CCC(NCCCc3ccncc3)CC2)c2scc(C)c2n1` [Example 3.54, 1-(2-Ethyl-7-methylthieno[3,2-d]pyrimidin-4-yl)-N-(3-(pyridin-4-yl)propyl)piperidin-4-amine], the concentration for half-maximal inhibition (IC50) in assay [1] and in assay [2] was greater than 20 µM in each case.
As for `Cc1nc(N2CCC(NCCCc3ccc(F)cc3)CC2)c2cnn(C)c2n1` [Example 3.55, 1-(1,6-Dimethyl-1H-pyrazolo[3,4-d]pyrimidin-4-yl)-N-(3-(4-fluorophenyl)propyl)piperidin-4-amine], the IC50 in assay [1] and in assay [2] was greater than 20 µM each time.
For `Cc1csc2c(N3CCC(NCCCc4ccncc4)CC3)nc(-c3ccccn3)nc12` [Example 3.56, 1-(7-Methyl-2-(pyridin-2-yl)thieno[3,2-d]pyrimidin-4-yl)-N-(3-(pyridin-4-yl)propyl)piperidin-4-amine], the IC50 in assay [1] and in assay [2] was greater than 20 µM throughout.
With `O=C(CCc1ccc(F)cc1)NC1CCN(c2ncnc3c(-c4ccccc4)csc23)CC1` [Example 3.57, 3-(4-Fluorophenyl)-N-(1-(7-phenylthieno[3,2-d]pyrimidin-4-yl)piperidin-4-yl)propanamide], the IC50 in assay [1] and in assay [2] was greater than 20 µM in each case.
Consider `Fc1ccc(CCCNC2CCN(c3ncnc4c(-c5ccccc5)csc34)CC2)cc1` [Example 3.58, N-(3-(4-Fluorophenyl)propyl)-1-(7-phenylthieno[3,2-d]pyrimidin-4-yl)piperidin-4-amine], for which the half-inhibitory concentration (IC50) was 1 to 20 µM in assay [1] and greater than 20 µM in assay [2].
For `Cc1nsc2c(N3CCC(NCCCc4ccc(F)cc4)CC3)ncnc12` [Example 3.59, N-(3-(4-Fluorophenyl)propyl)-1-(3-methylisothiazolo[4,5-d]pyrimidin-7-yl)piperidin-4-amine], the IC50 in assay [1] was 1 to 20 µM; in assay [2] it was greater than 20 µM.
Consider `Cc1nsc2c(=O)n(Cc3ccc(S(N)(=O)=O)cc3)cnc12` [Example 3.60, 4-((3-Methyl-7-oxoisothiazolo[4,5-d]pyrimidin-6(7H)-yl)methyl)benzenesulfonamide], for which the IC50 in assay [1] and in assay [2] was 1 to 20 µM in each case.
`Cc1csc2c(N3CCC(NCCCc4ccncc4)CC3)nc(-c3ccccc3)nc12` [Example 3.61, 1-(7-Methyl-2-phenylthieno[3,2-d]pyrimidin-4-yl)-N-(3-(pyridin-4-yl)propyl)piperidin-4-amine]: the half-inhibitory concentration (IC50) in assay [1] and in assay [2] was greater than 20 µM each time.
